In the METLIN SMRT retention time set (Domingo-Almenara et al. 2019) one finds RP-LC retention time data, which are given here for 60 molecules.

This series in a line: gradient 5% acetonitrile 3 min, to 50% in 2 min, to 85% in 15 min, held 3 min, 100 µL/min. The conditions noted are these: column: Zorbax Extend-C18 2.1 x 50 mm; eluents: water / acetonitrile, 0.1% formic acid. A digest of the protocol:
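Retention times come from adduct peaks that were picked computationally and then checked by hand. The standards, pure and pooled in mixtures of ~100 molecules, were run on a Zorbax Extend-C18 column (2.1 × 50 mm, 1.8 μm) at 100 μL/min with water and acetonitrile, each with 0.1% formic acid. Detection was by quadrupole time-of-flight mass spectrometry in positive and negative ionization mode, with a dead volume of 40 μL and a dwell volume of 900 μL.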
`CCn1ccc2cc(S(=O)(=O)N3CCCC(C(=O)NC4CCCCC4)C3)ccc21` (stereo not given) showed an RP-LC retention time of 1010 s. Under `COc1cc(C2OC(c3ccc(Br)cc3)=NN2C(C)=O)ccc1OC(C)=O` (stereo not given) stands 1000 s; under `COc1cccc(C(=O)NCc2ccc3[nH]c4c(c3c2)CCCC4)c1OC`, 910 s. `CCOC(=O)c1cc(S(=O)(=O)N2CCCC2C(=O)Nc2ccc3c(c2)OCCO3)cn1C` (stereo not given) had an RP-LC retention time of 869 s. `CCCn1cnc2cc(CNC(=O)Cc3cccc(Cl)c3)ccc21`: the RP-LC retention time is 670 s. The molecule `COc1ncc(C(=O)Nc2cc(C)ccc2F)c(C)n1` gave an RP-LC retention time of 756 s.

As to `Cc1cc(C(=O)N(Cc2ccco2)c2nc3ccccc3s2)on1`, the RP-LC retention time was 1100 s. `CNC(Cc1ccccc1)c1ccc(OC)cc1` (stereo not given) returned an RP-LC retention time of 567 s. With `CCC(C)C(NC(=O)c1cccc(Cl)c1)C(=O)Nc1nc2ccccc2[nH]1` (stereo not given) the figure was 750 s; with `COc1cccc(CCC(=O)N2CC3CN(S(=O)(=O)c4ccc(C)cc4)CC(C2)O3)c1`, 908 s.

With `Cc1ccc(Cl)cc1N1CCN(C(=O)c2csc(C(=O)NC3CC3)n2)CC1`, the RP-LC retention time was found to be 972 s. The molecule `O=C(Cc1nnc(-c2ccccc2)o1)N1CCSCC1` returned an RP-LC retention time of 698 s. With `O=C(Nc1cccn2cnnc12)c1cccc(C(F)(F)F)c1` the figure was 738 s; with `CCNS(=O)(=O)c1cc(-c2c(CC)noc2NC(C)=O)ccc1C`, 698 s. For `O=C(NCc1cccc(Br)c1)C1CCCN(C(=O)C2Sc3ccccc3NC2=O)C1` (stereo not given), the RP-LC retention time came to 800 s. Regarding `CC(C)NCC(O)COc1ccc(Br)cc1Br` (stereo not given), the RP-LC retention time was 586 s. On to `CCCN1C(=O)COc2ccc(-c3noc(-c4ccccc4F)n3)cc21`, for which the RP-LC retention time turned out to be 1160 s. `O=C(Nc1ccccc1)C1CCN(S(=O)(=O)c2cc(-c3noc(C4CC4)n3)cs2)CC1` registered an RP-LC retention time of 1020 s. As to `CN(C)CCNC(=O)C1CCN(C(=O)c2cc3ccsc3n2Cc2ccc(Cl)cc2)CC1`, the RP-LC retention time is 685 s. Under `O=C(Cn1c(=O)c2cccn2c2ccc(F)cc21)NCCCN1CCCCC1` stands 600 s; under `CC(C)CC(=O)NCCn1c(=O)n(Cc2ccc(F)cc2)c2cccnc21`, 750 s. Take `CCn1cc(CC(=O)NCc2ccc(OC)cc2)c2cccnc21`: the RP-LC retention time was 716 s.

Take `Cc1nn(C)c(C)c1S(=O)(=O)N1CCC(n2c(C)cnc2-c2ccccc2)C1` (stereo not given): the RP-LC retention time was found to be 618 s. Molecule `CCOC(=O)C(C(=O)N1CCN(C)CC1)C1CCCCC1` (stereo not given) had an RP-LC retention time of 629 s. `CN(C)C(=O)c1csc(S(=O)(=O)N2CCC(C(=O)Nc3ccccc3)CC2)c1` registered an RP-LC retention time of 752 s. `CCc1nc(OCC(=O)Nc2ccccc2C(F)(F)F)c2ccccc2n1` returned an RP-LC retention time of 846 s. Molecule `COc1ccc(NC(=O)N2CCC(c3nc(C(=O)N4CCOCC4)c(C)o3)CC2)cc1` showed an RP-LC retention time of 660 s. Under `Cc1ccc2c(=O)c(C(=O)N3CCC(C)CC3)cn(CC(=O)NC3CCCCC3)c2n1` stands 762 s. In turn, `O=C(Nc1ccc2c(c1)OCO2)c1cn(-c2cc(N3CCCC3)ncn2)cn1` registered an RP-LC retention time of 808 s. In turn, `COc1cc(NC(=O)N2CCCN(c3ccc(=O)n(-c4ccc(F)cc4)n3)CC2)cc(OC)c1OC` registered an RP-LC retention time of 702 s.

Take `Cc1ccc(C)c(N2CCN(C(=O)C3CCN(S(=O)(=O)c4cn(C)c(C)n4)CC3)CC2)c1`: the RP-LC retention time stood at 822 s. With `C=CCNC(=O)c1ccc2nc(C)c(C)nc2c1`, the RP-LC retention time is 626 s. Under `C=CCNC(=O)C1CCCN(C(=O)Nc2ccc(NC(=O)Nc3ccccc3F)cc2)C1` (stereo not given) stands 731 s. `O=C(CC1=C2CCCCC2NC1=O)Nc1ccccc1` (stereo not given): the RP-LC retention time is 681 s. With `O=C(CN1CCN(CC(=O)c2cccs2)CC1)Nc1cc(C(F)(F)F)ccc1Cl` the figure was 625 s; with `CCc1ccc(N2CC(c3noc(-c4ccccn4)n3)CC2=O)cc1` (stereo not given), 829 s; with `CCCn1cc(CCNS(=O)(=O)c2ccc(C(C)C)cc2)c2cccnc21`, 1030 s. Molecule `COc1ccccc1CC1C(=O)Nc2ccc(Br)cc21` (stereo not given) yielded an RP-LC retention time of 976 s. In turn, `C[C@@]1(O)CCN(Cc2cccc(F)c2F)C[C@H]1N1CCCC1` registered an RP-LC retention time of 563 s. In the case of `COc1ccccc1CCC(=O)N1CCC2(CC1)NCc1ccccc1-n1ccnc12`, the RP-LC retention time is 623 s. As to `CCNC(=O)c1[nH]c2ccc(C)cc2c1N1CCCC1=O`, the RP-LC retention time is 690 s. With `O=C(C1COc2ccccc2O1)N1CCN(c2cc(-c3cccs3)[nH]n2)CC1` (stereo not given), the RP-LC retention time amounted to 839 s. Take `Cc1cccc(Cn2c(=O)n(CCNC(=O)CC(C)C)c3ncccc32)c1`: the RP-LC retention time was determined as 800 s.

For `Cc1cc(C)cc(NC(=O)N2CCC(N3CCN(Cc4cccc(F)c4)C(=O)C3=O)CC2)c1`, the RP-LC retention time was found to be 800 s. Take `CCOCCCNC(=O)CN1C(=O)C2CCCCN2c2ccc(S(=O)(=O)N3CCCC3)cc21` (stereo not given): the RP-LC retention time is 819 s. With `CCC(=O)N1CCc2ccccc2C1C(=O)NCc1ccc2c(c1)OCO2` (stereo not given), the RP-LC retention time stood at 761 s. Molecule `Cc1nc(N2CCN(c3ccccn3)CC2)c2c(C)c(C(=O)Nc3cccc(Cl)c3C)sc2n1` came in with an RP-LC retention time of 752 s. Turning to `CCc1ccc(C2=C(C)C(N3CCC(NC(=O)C(C)(C)CC)CC3)=NS2(=O)=O)cc1`, the RP-LC retention time came to 965 s. Consider `O=C1COc2ccc(S(=O)(=O)N3CCCC3C(=O)N3CCN(c4ccccc4F)CC3)cc2N1` (stereo not given), for which the RP-LC retention time stood at 790 s. Regarding `O=C(Nc1ccc(F)cc1)c1nnc(COCC(=O)N2CCN(c3ccccn3)CC2)s1`, the RP-LC retention time is 623 s. For the molecule `CC(C)NC(=O)c1cn(-c2ccc(-c3nc(C(C)(C)C)no3)cn2)cn1`, the RP-LC retention time amounted to 970 s. Under `CCCn1cc(S(=O)(=O)NCc2ccccc2F)c2cccnc21` stands 861 s; under `O=C(CCn1nnc2cc(-c3noc(COc4ccc(F)cc4)n3)ccc21)N1CCCC1`, 877 s. Regarding `CC1(C)CC(=O)c2cn(-c3ccccc3)c(=O)c(C(=O)Nc3cc(F)ccc3F)c2C1`, the RP-LC retention time worked out at 1030 s. With `CCOc1ccccc1NC(=O)N1CC(n2ccnc2C)C1` the figure was 639 s.

Take `Cc1ccc(C)c(NS(=O)(=O)c2cn(C(C)C)c3ncccc23)c1`: the RP-LC retention time was 960 s. The molecule `Cc1cc(-c2c(C)sc(C)c2S(=O)(=O)Nc2ccc(C)c(C)c2)n[nH]1` displayed an RP-LC retention time of 1090 s. `Cc1ccc(-c2nc(-c3ccc(-c4noc(CNS(=O)(=O)c5ccccc5)n4)cc3)cs2)s1` yielded an RP-LC retention time of 1290 s. The molecule `CCc1noc2cc(-c3ccccc3)n(C)c(=O)c12` yielded an RP-LC retention time of 950 s. The molecule `Cc1ccc(NCCN(C)C)c2c(=O)c3cc(O)ccc3sc12` yielded an RP-LC retention time of 736 s.
